Reference: PubChem BioAssay AID330 (DTP/NCI, 2004)
Where “and” joins values, the source holds several entries; their conditions need not be identical. Equal entries are not always repeated. Inconclusive results and toxic doses are left out. The calls were made as follows: active = survival T/C of 150% or more; inactive = T/C below 125% in these data.

Tested on: P388 leukemia ip, CD2F1 mice, survival T/C
Experiment: NCI In Vivo Anticancer Drug Screen. Data for tumor model P388 Leukemia (intraperitoneal) in CD2F1 (CDF1) mice
Details: endpoint: median survival time, higher = longer survival
Outline: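 Mice carrying the transplanted tumor received test compound or vehicle. Survival was recorded in each group, and the value is the treated-group measurement divided by that of the vehicle-treated control group.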

[1] = dose: 25.0 mg/kg/injection, schedule: Q01DX009 (ip), vehicle: saline with Tween-80
[2] = dose: 50.0 mg/kg/injection, schedule: Q01DX009 (ip), vehicle: saline with Tween-80
[3] = dose: 100.0 mg/kg/injection, schedule: Q01DX009 (ip), vehicle: saline with Tween-80
[4] = dose: 200.0 mg/kg/injection, schedule: Q01DX009 (ip), vehicle: saline with Tween-80
[5] = dose: 50.0 mg/kg/injection, schedule: Q01DX005 (ip), vehicle: saline with Tween-80
[6] = dose: 100.0 mg/kg/injection, schedule: Q01DX005 (ip), vehicle: saline with Tween-80
[7] = dose: 200.0 mg/kg/injection, schedule: Q01DX005 (ip), vehicle: saline with Tween-80
[8] = dose: 60.0 mg/kg/injection, schedule: Q01DX005 (ip), vehicle: Klucel (hydroxypropylcellulose) (HPC)
[9] = dose: 50.0 mg/kg/injection, schedule: Q01DX009 (ip), vehicle: saline
[10] = dose: 50.0 mg/kg/injection, schedule: Q01DX005 (ip), vehicle: saline
[11] = dose: 100.0 mg/kg/injection, schedule: Q01DX005 (ip), vehicle: saline
[12] = dose: 200.0 mg/kg/injection, schedule: Q01DX005 (ip), vehicle: saline
[13] = dose: 12.5 mg/kg/injection, schedule: Q01DX009 (ip), vehicle: saline with Tween-80
[14] = dose: 50.0 mg/kg/injection, schedule: Q01DX005 (ip), vehicle: Klucel (hydroxypropylcellulose) (HPC)
[15] = dose: 100.0 mg/kg/injection, schedule: Q01DX005 (ip), vehicle: Klucel (hydroxypropylcellulose) (HPC)
[16] = dose: 200.0 mg/kg/injection, schedule: Q01DX005 (ip), vehicle: Klucel (hydroxypropylcellulose) (HPC)
[17] = dose: 50.0 mg/kg/injection, schedule: Q01DX009 (ip), vehicle: Klucel (hydroxypropylcellulose) (HPC)
[18] = dose: 100.0 mg/kg/injection, schedule: Q01DX009 (ip), vehicle: Klucel (hydroxypropylcellulose) (HPC)
[19] = dose: 200.0 mg/kg/injection, schedule: Q01DX009 (ip), vehicle: Klucel (hydroxypropylcellulose) (HPC)
[20] = dose: 100.0 mg/kg/injection, schedule: Q04DX002 (ip), vehicle: Klucel (hydroxypropylcellulose) (HPC)
[21] = dose: 200.0 mg/kg/injection, schedule: Q04DX002 (ip), vehicle: Klucel (hydroxypropylcellulose) (HPC)
[22] = dose: 400.0 mg/kg/injection, schedule: Q04DX002 (ip), vehicle: Klucel (hydroxypropylcellulose) (HPC)
[23] = dose: 25.0 mg/kg/injection, schedule: Q01DX005 (ip), vehicle: Klucel (hydroxypropylcellulose) (HPC)

Measured: T/C

C1=CC2OC2CCCCCCCC1 (mixture of isomers)
inactive: [1] 106 % of control | [2] 107 % of control | [3] 109 % of control

CC(N)c1ccccc1 (stereo not drawn) (tested in a mixture with another compound)
inactive: [2] 104 % of control | [3] 99 % of control | [4] 99 % of control

Cn1c(Cc2ccccc2)c(C(=O)/C=C/c2ccccc2)c(=O)n(C)c1=O
inactive: [5] 103 % of control | [6] 100 % of control | [7] 99 % of control

COc1cccc(C2CC(C)(O)Oc3cc4c(cc32)OCO4)c1 (stereo not drawn)
inactive: [8] 93 % of control

Cc1ccccc1N1CCOS(=O)OC(C)C1 (stereo not drawn)
inactive: [5] 100 % of control | [6] 104 % of control | [7] 100 % of control

COc1c2occc2c(N=Cc2c[nH]c3ccccc23)c2ccc(=O)oc12
inactive: [5] 92 % of control | [6] 93 % of control | [7] 86 % of control

c1c[nH]cn1
inactive: [9] 97 % of control

C=CS(=O)(=O)c1cccc(N2C(=O)c3cc(S(=O)(=O)O)cc4c(N)c(S(=O)(=O)O)cc(c34)C2=O)c1
inactive: [10] 107 % of control | [11] 107 % of control | [12] 100 % of control

Cn1c(N)c(C(=O)/C=C/c2ccccc2)c(=O)n(CCN2CCOCC2)c1=O
inactive: [10] 100 % of control | [11] 94 % of control | [12] 89 % of control

S=C(N=Nc1ccccc1)NNc1ccccc1
inactive: [13] 100 % of control | [1] 95 % of control | [2] 90 % of control | dose: 100.0 mg/kg/injection, schedule: Q04DX003 (ip), vehicle: saline with Tween-80 90 % of control | dose: 200.0 mg/kg/injection, schedule: Q04DX003 (ip), vehicle: saline with Tween-80 86 % of control | dose: 400.0 mg/kg/injection, schedule: Q04DX003 (ip), vehicle: saline with Tween-80 100 % of control

COc1ccc(COc2ccc(C(=O)CCN3CCOCC3)cc2)cc1
inactive: [14] 99 % of control | [15] 99 % of control | [16] 99 % of control

NNC(=O)CC(N)=O
inactive: dose: 12.5 mg/kg/injection, schedule: Q04DX003 (ip), vehicle: saline 95 % of control | dose: 25.0 mg/kg/injection, schedule: Q04DX003 (ip), vehicle: saline 95 % of control | dose: 50.0 mg/kg/injection, schedule: Q04DX003 (ip), vehicle: saline 96 % of control | dose: 200.0 mg/kg/injection, schedule: Q04DX003 (ip), vehicle: saline 104 % of control | dose: 400.0 mg/kg/injection, schedule: Q04DX003 (ip), vehicle: saline 100 % of control

CN(C)c1ccc(C(=O)Cc2ccc3ccccc3n2)cc1
inactive: [17] 92 % of control | [18] 89 % of control | [19] 102 % of control

CCOC(=O)N1CCc2cc(OC)c(OC)cc2/C1=C/c1cc(Br)sc1Br
inactive: [20] 102 % of control | [21] 103 % of control | [22] 105 % of control

O=[N+]([O-])C1C=Nc2ccccc2N=C1
inactive: [17] 105 % of control | [18] 97 % of control | [19] 97 % of control | dose: 400.0 mg/kg/injection, schedule: Q01DX009 (ip), vehicle: Klucel (hydroxypropylcellulose) (HPC) 96 % of control

Cc1ncc(C(N)=O)c2c1OC(C)(C)OC2
inactive: [5] 100 % of control | [6] 100 % of control | [7] 99 % of control

Nc1nc(N)c(N2CCN(Cc3ccccc3)CC2)c(Cl)n1
inactive: dose: 15.0 mg/kg/injection, schedule: Q01DX005 (ip), vehicle: Klucel (hydroxypropylcellulose) (HPC) 101 % of control | dose: 30.0 mg/kg/injection, schedule: Q01DX005 (ip), vehicle: Klucel (hydroxypropylcellulose) (HPC) 99 % of control | [8] 99 % of control and 104 % of control

CCC(C)C(NC(=O)OC(C)(C)c1ccc(-c2ccccc2)cc1)C(=O)O (stereo not drawn)
inactive: [5] 99 % of control | [6] 102 % of control | [7] 95 % of control

CCCCCCC(/C=C/c1ccc(Cl)cc1)=N\O
inactive: dose: 25.0 mg/kg/injection, schedule: Q01DX009 (ip), vehicle: Klucel (hydroxypropylcellulose) (HPC) 106 % of control | [17] 104 % of control | [18] 100 % of control and 108 % of control

OC1CC2c3ccccc3C1c1cccc[n+]12 (stereo not drawn)
inactive: dose: 12.5 mg/kg/injection, schedule: Q01DX005 (ip), vehicle: saline 106 % of control | dose: 25.0 mg/kg/injection, schedule: Q01DX005 (ip), vehicle: saline 108 % of control | [10] 103 % of control and 106 % of control

CCCn1c2c(c3ccccc3c1=O)C(=O)c1ccccc1-2
inactive: dose: 6.25 mg/kg/injection, schedule: Q01DX005 (ip), vehicle: saline with Tween-80 95 % of control | dose: 12.5 mg/kg/injection, schedule: Q01DX005 (ip), vehicle: saline with Tween-80 88 % of control | dose: 25.0 mg/kg/injection, schedule: Q01DX005 (ip), vehicle: saline with Tween-80 93 % of control

CS(C)(=O)=NS(=O)(=O)c1ccc([N+](=O)[O-])cc1
inactive: [20] 100 % of control | [21] 95 % of control | [22] 96 % of control

CN1C(=O)N(c2cc(Cl)cc(Cl)c2)C(=N)C1=S
inactive: dose: 60.0 mg/kg/injection, schedule: Q01DX005 (ip), vehicle: Klucel + Tween-80 98 % of control | dose: 120.0 mg/kg/injection, schedule: Q01DX005 (ip), vehicle: Klucel + Tween-80 94 % of control

O=c1[nH]c2ccccc2c2cc3ccccc3cc12
inactive: dose: 6.25 mg/kg/injection, schedule: Q01DX009 (ip), vehicle: saline 94 % of control | dose: 12.5 mg/kg/injection, schedule: Q01DX009 (ip), vehicle: saline 86 % of control | dose: 25.0 mg/kg/injection, schedule: Q01DX009 (ip), vehicle: saline 99 % of control | [9] 96 % of control | [3] 89 % of control | [4] 89 % of control | dose: 400.0 mg/kg/injection, schedule: Q01DX009 (ip), vehicle: saline with Tween-80 89 % of control

COc1cc(OC2OC(COC3OC(CO)C(O)C(O)C3O)C(O)C(O)C2O)c2c(c1)C(=O)c1cc(C)cc(O)c1C2=O (stereo not drawn)
inactive: dose: 25.0 mg/kg/injection, schedule: Q01DX005 (ip), vehicle: water 100 % of control | dose: 50.0 mg/kg/injection, schedule: Q01DX005 (ip), vehicle: water 98 % of control | dose: 100.0 mg/kg/injection, schedule: Q01DX005 (ip), vehicle: water 98 % of control | dose: 200.0 mg/kg/injection, schedule: Q01DX005 (ip), vehicle: water 96 % of control

O=c1[nH]cnc2nc(/N=N/SCCO)[nH]c12
inactive: [23] 104 % of control | [14] 110 % of control | [15] 119 % of control

NNP(=S)(NN)Oc1ccccc1
inactive: dose: 6.25 mg/kg/injection, schedule: Q01DX005 (ip), vehicle: Klucel (hydroxypropylcellulose) (HPC) 96 % of control | dose: 12.5 mg/kg/injection, schedule: Q01DX005 (ip), vehicle: Klucel (hydroxypropylcellulose) (HPC) 114 % of control | [23] 105 % of control

O=C1Nc2cnc(Cl)nc2Nc2ccc(Cl)cc21
inactive: [14] 92 % of control | [15] 99 % of control | [16] 89 % of control

COc1ccc(-n2c(SC)nccc2=O)cc1
inactive: dose: 100.0 mg/kg/injection, schedule: Q04DX003 (ip), vehicle: Klucel (hydroxypropylcellulose) (HPC) 100 % of control | dose: 200.0 mg/kg/injection, schedule: Q04DX003 (ip), vehicle: Klucel (hydroxypropylcellulose) (HPC) 99 % of control

CCN1c2ccccc2CC(C#N)(CCN(C)C)c2ccccc21 (stereo not drawn)
inactive: [13] 100 % of control | [1] 99 % of control | [2] 104 % of control

CC(C)c1nccn1Cc1c(Cl)cccc1Cl
inactive: [17] 102 % of control | [18] 95 % of control | [19] 96 % of control
